Read-outs that look alike come from different tables or passages of the source. Some results are limits rather than exact numbers.

Data on ten compounds can be found in patent publication US7807677B2, “HIV protease inhibitors” (Medivir AB, priority 2005, dated 2010).

Series [1] addresses T1, HIV-1 protease (Human immunodeficiency virus type 1 group M subtype B, UniProt P04585). As to conditions: Enzyme Inhibition.
The conditions of series [2]: cited from earlier work.
Series [3] deals with T1, HIV-1 protease. Description: biochemical.
Another series concerns HIV-1IIIB (wild type). Description: Antiviral activity in cell culture (XTT assay in MT-4 cells). In kind it is cell-based. As to conditions: Human immunodeficiency virus 1, MT4, read-out: ED50 (μM). The protocol: Compounds of the invention are assayed for HIV activity, for example using multiple determinations with XTT in MT-4 cells (Weislow et al, J Nat Cancer Inst 1989, vol 81 no 8, 577 et seq), preferably including determinations in the presence of 40-50% human serum to indicate the contribution of protein binding. In short the XTT assay uses human T cell line MT4 cells grown in RPMI 1640 medium supplemented with 10% fetal calf serum (or 40-50% human serum as appropriate), penicillin and streptomycin seeded into 96 well microplates (2·10^4 cells/well) infected with 10-20 TCID50 per well of HIV-1IIIB (wild type) or mutant virus, such as those bearing RT Ile 100, Cys 181 or Asn 103 mutations. Serially diluted test compounds are added to respective wells and the culture incubated at 37° C. in a CO2 enriched atmosphere and the viability of cells is determined at day five or six with XTT vital dye. Results are typically presented as ED50 μM.
Exp. Med. Biol., 1998, 436, 99-103. […] Agents Chemother., 1997, 41, 2383-2388.

The test system of series [4] is cytochrome P450 3A enzyme. As to conditions: inhibitor of the cytochrome P450 3A enzyme; cited from earlier work.

One may read the Ki as a measure of affinity in units of concentration, obtained from inhibition or displacement. As to “{(1S)-1-[N′-(4-Bromo-benzyl)-N′-((2S)-2-hydroxy-2-((1S,2R)-2-hydroxy-indan-1-ylcarbamoyl)-3-phenyl-propyl)-hydrazinocarbonyl]-2-methyl-propyl}-carbamic acid benzyl ester [Compound 20]”, on HIV-1 protease [1], the Ki fell in the range of 11 to 50 nM.
For the compound `Cc1c(O)cccc1C(=O)N[C@@H](CSc1ccccc1)[C@H](O)CN1C[C@H]2CCCC[C@H]2C[C@H]1C(=O)NC(C)(C)C` [nelfinavir], the “increase the exposure of saquinavir” value in series [2] (saquinavir dosed at 1200 mg thrice-daily (TID), at steady-state) is recorded as 392%.
`CC(C)[C@H](NC(=O)OCc1ccccc1)C(=O)NN(Cc1ccccc1)C[C@@](O)(Cc1ccccc1)C(=O)N[C@H]1c2ccccc2C[C@H]1O` [Compound 11, {(1S)-1-[N′-Benzyl-N′-((2S)-2-hydroxy-2-((1S,2R)-2-hydroxy-indan-1-ylcarbamoyl)-3-phenyl-propyl)-hydrazinocarbonyl]-2-methyl-propyl}-carbamic acid benzyl ester]: at HIV-1 protease [3], the Ki lay within 11 to 50 nM.
Still for that read-out and setting: the value for `CC(C)(C)[C@H](NC(=O)OCc1ccccc1)C(=O)NN(Cc1ccccc1)C[C@@](O)(Cc1ccccc1)C(=O)N[C@H]1c2ccccc2C[C@H]1O` [Compound 13, {(1S)-1-[N′-Benzyl-N′-((2S)-2-hydroxy-2-((1S,2R)-2-hydroxy-indan-1-ylcarbamoyl)-3-phenyl-propyl)-hydrazinocarbonyl]-2,2-dimethyl-propyl}-carbamic acid benzyl ester] was 11 to 50 nM.
For the compound `COC(=O)N[C@H](C(=O)NN(Cc1ccc(Br)cc1)C[C@@](O)(Cc1ccccc1)C(=O)N[C@H]1c2ccccc2C[C@H]1O)C(C)(C)C` [Compound 19, {(1S)-1-[N′-(4-Bromo-benzyl)-N′-((2S)-2-hydroxy-2-((1S,2R)-2-hydroxy-indan-1-ylcarbamoyl)-3-phenyl-propyl)-hydrazinocarbonyl]-2,2-dimethyl-propyl}-carbamic acid methyl ester], in the series with HIV-1IIIB (wild type), the EC50 was below 2 µM.
At HIV-1 protease [3], `CC(C)(C)[C@H](NC(=O)NCc1ccccc1)C(=O)NN(Cc1ccccc1)C[C@@](O)(Cc1ccccc1)C(=O)N[C@H]1c2ccccc2C[C@H]1O` [Compound 18, (2S)-2-Benzyl-3-{N-Benzyl-N′-[(2S)-2-(3-benzyl-ureido)-3,3-dimethyl-butyryl]-hydrazino}-2-hydroxy-N-((1S,2R)-2-hydroxy-indan-1-yl)-propionamide] came in with a Ki of 11 to 50 nM.
The same measure, in the same setting: the result for `CC(C)(C)[C@H](NS(C)(=O)=O)C(=O)NN(Cc1ccccc1)C[C@@](O)(Cc1ccccc1)C(=O)N[C@H]1c2ccccc2C[C@H]1O` [Compound 17, (2S)-2-Benzyl-3-[N-benzyl-N′-((2S)-2-methanesulfonylamino-3,3-dimethyl-butyryl)-hydrazino]-2-hydroxy-N-((1S,2R)-2-hydroxy-indan-1-yl)-propionamide] reads 50 to 100 nM.
With `COC(=O)N[C@H](C(=O)NN(Cc1ccccc1)C[C@@](O)(Cc1ccccc1)C(=O)N[C@H]1c2ccccc2C[C@H]1O)C(C)C` [Compound 14, {(1S)-1-[N′-Benzyl-N′-((2S)-2-hydroxy-2-((1S,2R)-2-hydroxy-indan-1-ylcarbamoyl)-3-phenyl-propyl)-hydrazinocarbonyl]-2-methyl-propyl}-carbamic acid methyl ester], the EC50 in the series on HIV-1IIIB (wild type) lay within 2 to 10 µM. On HIV-1 protease [3], this compound gave an inhibition constant (Ki) below 10 nM.
For the compound `COC(=O)N[C@H](C(=O)N[C@@H](Cc1ccccc1)[C@@H](O)CN(Cc1ccc(-c2ccccn2)cc1)NC(=O)[C@@H](NC(=O)OC)C(C)(C)C)C(C)(C)C` [Atazanavir, atazanavir], the Ki in series [4] was 2400 nM. The “increase in exposure (saquinavir)” value in series [2] (due to combination with atazanavir, multiple-dose pharmacology study) is “greater than 3 fold”.
Take `COC(=O)N[C@H](C(=O)NN(Cc1ccccc1)C[C@@](O)(Cc1ccccc1)C(=O)N[C@H]1c2ccccc2C[C@H]1O)C(C)(C)C` [Compound 15, {(1S)-1-[N′-Benzyl-N′-((2S)-2-hydroxy-2-((1S,2R)-2-hydroxy-indan-1-ylcarbamoyl)-3-phenyl-propyl)-hydrazinocarbonyl]-2,2-dimethyl-propyl}-carbamic acid methyl ester]: the EC50 with HIV-1IIIB (wild type) is 2 to 10 µM. For the same compound, the inhibition constant Ki at HIV-1 protease [3] is below 10 nM.
